Values quoted from earlier work in patent publication US20060104997A1, “Monoterpene compositions and uses thereof” (priority 2001, published 2006).

Test system: advanced N-methyl-N-nitrosourea-induced rat mammary carcinoma

C=C(C)C1CC=C(CO)CC1 (stereo not shown) [perillyl alcohol, 1-hydroxymethyl-4-isopropenyl-1-cyclohexene]
activity relative to limonene: approximately 5 fold
